# Measured values as given in patent US20240299353A1, “COMPOSITIONS AND METHODS FOR TREATING […] 5-MEO-DMT” (Alvarius Pharmaceuticals Ltd., priority 2021, published 2024).
# Assays:
# [1] = test system: primary hippocampal neurons; assay: Antagonist pre-treatment studies of neuronal structural change, Sholl analysis; format: cell-based, rat; settings: for AUC of the Sholl plot / normalised AUC of the Sholl plot: vehicle pre-treated; for neuronal structural complexity (normalised AUC): meta-analysis, combined vehicle pre-treated groups
# Protocol: Primary hippocampal cultures were grown on 18 mm glass coverslips at a density of 1×10^6 cells as described. On 3 DIV all cells underwent a full medium change. […] On 4 DIV, all cells underwent a second full medium change. Cells in the combination group were treated with 2 μM 5-MeO-DMT for a further 24 hours with all other groups beginning a 24-hour treatment. After treatment was completed the cells were fixed and processed as described below.
# Based on the findings with other psychedelic drugs that share structural and behavioral similarities to 5-MeO-DMT we selected ANA-12 (Sigma), an antagonist of TrkB, the BDNF receptor, and rapamycin (ThermoFischer) an antagonist of the mammalian target of rapamycin (mTOR). Due to the affinity and known behavioral change induced by 5-MeO-DMT at the 5-HT1AR and 5-HT2AR we assessed their contribution to structural changes mediated by 5-MeO-DMT. The receptors were antagonized with WAY-100635 maleate (Tocris) or Ketanserin (Axxora), respectively. For all antagonist studies the antagonist under investigation was added 15 mins prior to drug treatment. […] ANA-12, Ketanserin and rapamycin were dissolved in dimethyl sulfoxide (DMSO) with a final concentration of 0.01-0.04% for treatment. WAY100635 was dissolved in sterile dH2O.
# After termination of drug treatment coverslips were processed and imaged as outlined for immunocytochemistry. In all instances NeuN antibody staining was used to visualize projections from the cell body. Images were analyzed using the Simple Neurite Tracer and Sholl analysis plug-ins for ImageJ Fiji. For the Sholl analysis circle radii of 2 μm increments were used. All images were taken and analyzed by an experimenter blinded to treatment conditions.
# Statistical Analysis—Data are represented as mean±SEM. Statistical analyses were performed using GraphPad Prism (version 5). For analyses involving comparison of three or more groups, a one-way ANOVA with Bonferroni's post-hoc test was utilized where appropriate. No statistics were calculated for the individual points of the Sholl plots, instead, statistical analyses were performed on the aggregate data, the area under the curve (AUC) of the Sholl plot. Secondary measurements were the Nmax, the maximum number of intersections measured by the Sholl analysis, which indicated the number of projections emanating from a neuron and the average length of primary neurites originating from the cell soma.
# GR = assay: Western blot of GR in hippocampus, chronic cocaine ± 5-MeO-DMT; format: in vivo, Male Wistar rats
# Excerpt: Male Wistar rats aged 7 weeks were acclimatized to the facility for 1 week prior to the beginning of the study. […] Animals were euthanized 23- or 119-hours following vehicle or 5-MeO-DMT administration.
# Following euthanasia brain regions of interest were isolated. Briefly, the olfactory bulbs were removed before the brain was placed in a rat brain matrix (FIG. 2A). Sterile blades were inserted at positions 2 and 3 (FIG. 2B) to extract a coronal slice containing the Bregma+˜0.2-+˜2.2 coordinates (FIG. 2C). From this tissue slice a blunted 12 G needle was used to punch dissect the NAc and dorsal striatum (DS) (FIG. 2D-2E) identified using the rat brain atlas (Panxinos and Watson 2nd edition). The PFC, hippocampus (Hip) and amygdala (Amyg) were then blunt dissected (FIG. 3A-3D). All regions were frozen in liquid nitrogen and stored at −80° C. until processed.
# These treatment groups were used for the molecular assessment of addiction-linked markers.
# Determination of protein concentration—a bicinchoninic acid assay (BCA, ThermoFisher) was conducted to determine the total protein concentration in tissue lysates following manufacturer's instructions. […] For tissue lysates a 1:10 dilution was performed with cell lysis buffer to ensure absorbance values lay within the working range established by the standards. […] The plate was covered and incubated for 30 mins at 37° C. before absorbance was read at 562 nm on a plate reader (SpectraMax M3). The absorbance values were used to form a standard curve of known protein concentrations and protein concentration of samples were derived using the equation of the line. […]
# SDS-PAGE and Western Blotting—Following equalisation of protein concentrations, 6× sample loading buffer (15% SDS, 15% […], 50% glycerol, 0.01% bromophenol blue, […]) was added to each sample using a dilution factor of 1:5 of the total volumes before boiling at 100° C. for 5 mins. […] The percentage of acrylamide in the resolving or stacking gel was determined by the molecular weight of the protein of interest. […]
# [2] = ANA-12 study, 5-MeO-DMT or cocaine alone
# [3] = WAY100635 study, 5-MeO-DMT (20 μM) or cocaine (25 μM) alone
# [4] = rapamycin study, 5-MeO-DMT or cocaine alone
Compound,"AUC of the Sholl plot [1, 2]","AUC of the Sholl plot ([1]; ANA-12 study, cocaine and 5-MeO-DMT combined)","average neurite length ([1]; ANA-12 study, 5-MeO-DMT alone)","average neurite length ([1]; ANA-12 study, 5-MeO-DMT in combination with cocaine)","normalised AUC of the Sholl plot [1, 3]","normalised AUC of the Sholl plot ([1]; WAY100635 study, cocaine followed by 5-MeO-DMT)","average neurite length ([1]; WAY100635 study, 5-Meo+vehicle)","normalised AUC of the Sholl plot ([1]; ketanserin study, cocaine followed by 5-MeO-DMT)",neuronal structural complexity (normalised AUC) ([1]; agent alone),neuronal structural complexity (normalised AUC) ([1]; cocaine+5-MeO-DMT combination),"normalised AUC of the Sholl plot [1, 4]","normalised AUC of the Sholl plot ([1]; rapamycin study, cocaine followed by 5-MeO-DMT)","GR expression (GR; 24 h and 120 h, 5-MeO-DMT)","GR expression (GR; 24 h, cocaine, p=0.0434, no post hoc differences)","GR expression (GR; 120 h, cocaine effect)"
"COc1ccc2[nH]cc(CCN(C)C)c2c1 [5-MeO-DMT, 5-methoxy-N,N-dimethyltryptamine]",increased the AUC relative to control,increased the AUC relative to control,significantly increased,significantly increased,increased the normalised AUC,no change between the combination group and control,significantly increased,reduced AUC relative to control,significantly increased neuronal structural complexity,significantly increased neuronal structural complexity,increased the normalised AUC,no change between the combination group and control,no 5-Meo-associated regulation of GR,,
"COC(=O)[C@H]1[C@@H](OC(=O)c2ccccc2)C[C@@H]2CC[C@H]1N2C.Cl [cocaine, cocaine hydrochloride, reference compound]",increased the AUC relative to control,,,,increased the normalised AUC,,,,significantly increased neuronal structural complexity,,increased the normalised AUC,,,significantly affected GR expression,not detectable
